Measured values taken from patent publication US8952024B2, “Herbicidal pyrimidone derivatives” (E I du Pont de Nemours and Company, priority 2009, dated 2015).

Experiments:
Assay type in all cases: in vivo
[1] = system: bermudagrass (Cynodon dactylon); test: Test B pre-/postemergence plant response
Procedure, shortened: (§1)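 Visually scored on a 0 to 100 scale after 13 to 15 days in greenhouse versus controls. Treatments were preemergence on seeded loam/sand soil and postemergence on 1- to 4-leaf plants.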

[2] = system: blackgrass (Alopecurus myosuroides); test: Test B pre-/postemergence plant response
Procedure, shortened: as §1

[3] = system: cocklebur (Xanthium strumarium); test: Test B pre-/postemergence plant response
Procedure, shortened: as §1

[4] = system: downy bromegrass (Bromus tectorum); test: Test B pre-/postemergence plant response
Procedure, shortened: as §1

[5] = system: giant foxtail (Setaria faberii); test: Test B pre-/postemergence plant response
Procedure, shortened: as §1

[6] = system: green foxtail (Setaria viridis); test: Test B pre-/postemergence plant response
Procedure, shortened: as §1

[7] = system: johnsongrass (Sorghum halepense); test: Test B pre-/postemergence plant response
Procedure, shortened: as §1

kochia (Kochia scoparia) = test: Test B pre-/postemergence plant response
Procedure, shortened: as §1

[8] = system: morningglory (Ipomoea coccinea); test: Test B pre-/postemergence plant response
Procedure, shortened: as §1

[9] = system: ragweed (common ragweed, Ambrosia elatior); test: Test B pre-/postemergence plant response
Procedure, shortened: as §1

soybean (Glycine max) = test: Test B pre-/postemergence plant response
Procedure, shortened: as §1

[10] = system: velvetleaf (Abutilon theophrasti); test: Test B pre-/postemergence plant response
Procedure, shortened: as §1

[11] = system: wheat (Triticum aestivum); test: Test B pre-/postemergence plant response
Procedure, shortened: as §1

wild oat (Avena fatua) = test: Test B pre-/postemergence plant response
Procedure, shortened: as §1

[12] = system: yellow nutsedge (Cyperus esculentus); test: Test B pre-/postemergence plant response
Procedure, shortened: as §1

[13] = system: canarygrass (Phalaris minor); test: Test B postemergence plant response; settings: Postemergence
Procedure, shortened: (§2)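 Plants grown in peat/vermiculite medium were sprayed postemergence at 2–18 cm height (1- to 4-leaf stage). After 13–15 days in the greenhouse, response was rated visually against untreated controls on a 0–100 scale (0 no effect, 100 complete control).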

[14] = system: chickweed (Stellaria media); test: Test B postemergence plant response; settings: Postemergence
Procedure, shortened: as §2

[15] = system: windgrass (Apera spica-venti); test: Test B postemergence plant response; settings: Postemergence
Procedure, shortened: as §2

[16] = 250 g ai/ha, Preemergence, 0 to 100 scale
[17] = Postemergence, 31 g ai/ha, scale 0 to 100 (0 no effect, 100 complete control)
[18] = Postemergence, 62 g ai/ha, scale 0 (no effect) to 100 (complete control), 13 to 15 days
[19] = Postemergence, 250 g ai/ha, scale 0 to 100
[20] = Preemergence, 31 g ai/ha, scale 0 to 100 (0 no effect, 100 complete control)
[21] = Preemergence, 62 g ai/ha, scale 0 to 100, 0 no effect, 100 complete control
[22] = Preemergence, 125 g ai/ha, 0 to 100 scale
[23] = Postemergence, 125 g ai/ha, visual rating after 13 to 15 days, scale 0 (no effect) to 100 (complete control)
[24] = 31 g ai/ha, scale 0 to 100 (0 no effect, 100 complete control)
[25] = 62 g ai/ha, scale 0 (no effect) to 100 (complete control), 13 to 15 days
[26] = 125 g ai/ha, visual rating after 13 to 15 days, scale 0 (no effect) to 100 (complete control)

## 5-[(1-ethyl-5-hydroxy-1H-pyrazol-4-yl)carbonyl]-2-phenyl-3-(phenylmethyl)-4(3H)-pyrimidinone [Compound 20]
[1]; [16]
  Plant response rating, Bermudagrass: 90
[1]; [17]
  Plant response rating, Bermudagrass: 15
[1]; [18]
  Plant response rating, Bermudagrass: 25
[1]; Postemergence, 125 g ai/ha, scale 0 to 100 (0 no effect, 100 complete control), 13 to 15 days
  Plant response rating, Bermudagrass: 70
[1]; [19]
  Bermudagrass plant response rating: 80
[1]; [20]
  Plant response rating, Bermudagrass: 10
[1]; [21]
  Plant response rating, Bermudagrass: 70
[1]; [22]
  Bermudagrass plant response rating: 80
[2]; [16]
  Plant response rating, Blackgrass: 0
[2]; [17]
  Plant response rating, Blackgrass: 0
[2]; [18]
  Plant response rating, Blackgrass: 0
[2]; [23]
  Plant response rating, Blackgrass: 0
[2]; [19]
  Blackgrass plant response rating: 5
[2]; [20]
  Plant response rating, Blackgrass: 0
[2]; [21]
  Plant response rating, Blackgrass: 0
[2]; [22]
  Blackgrass plant response rating: 0
[3]; [16]
  Plant response rating, Cocklebur: 100
[3]; [17]
  Plant response rating, Cocklebur: 65
[3]; [18]
  Plant response rating, Cocklebur: 80
[3]; [23]
  Plant response rating, Cocklebur: 85
[3]; [19]
  Cocklebur plant response rating: 100
[3]; [20]
  Plant response rating, Cocklebur: 10
[3]; [21]
  Plant response rating, Cocklebur: 10
[3]; [22]
  Cocklebur plant response rating: 70
[4]; [16]
  Plant response rating, Bromegrass, Downy: 0
[4]; [17]
  Plant response rating, Bromegrass, Downy: 0
[4]; [18]
  Plant response rating, Bromegrass, Downy: 0
[4]; [23]
  Plant response rating, Bromegrass, Downy: 0
[4]; [19]
  Bromegrass, Downy plant response rating: 45
[4]; [20]
  Plant response rating, Bromegrass, Downy: 0
[4]; [21]
  Plant response rating, Bromegrass, Downy: 0
[4]; [22]
  Bromegrass, Downy plant response rating: 0
[5]; [16]
  Plant response rating, Foxtail, Giant: 0
[5]; [17]
  Plant response rating, Foxtail, Giant: 15
[5]; [18]
  Plant response rating, Foxtail, Giant: 45
[5]; [23]
  Plant response rating, Foxtail, Giant: 60
[5]; [19]
  Foxtail, Giant plant response rating: 65
[5]; [20]
  Plant response rating, Foxtail, Giant: 0
[5]; [21]
  Plant response rating, Foxtail, Giant: 0
[5]; [22]
  Foxtail, Giant plant response rating: 0
[6]; [16]
  Plant response rating, Foxtail, Green: 0
[6]; [17]
  Plant response rating, Foxtail, Green: 5
[6]; [18]
  Plant response rating, Foxtail, Green: 10
[6]; [23]
  Plant response rating, Foxtail, Green: 35
[6]; [19]
  Foxtail, Green plant response rating: 50
[6]; [20]
  Plant response rating, Foxtail, Green: 0
[6]; [21]
  Plant response rating, Foxtail, Green: 0
[6]; [22]
  Foxtail, Green plant response rating: 0
[7]; [16]
  Plant response rating, Johnsongrass: 10
[7]; [17]
  Plant response rating, Johnsongrass: 0
[7]; [18]
  Plant response rating, Johnsongrass: 0
[7]; [19]
  Johnsongrass plant response rating: 15
[7]; [20]
  Plant response rating, Johnsongrass: 0
[7]; [21]
  Plant response rating, Johnsongrass: 0
[7]; [22]
  Johnsongrass plant response rating: 0
Kochia (Kochia scoparia); [16]
  Plant response rating, Kochia: 100
Kochia (Kochia scoparia); [17]
  Plant response rating, Kochia: 65
Kochia (Kochia scoparia); [18]
  Plant response rating, Kochia: 80
Kochia (Kochia scoparia); [23]
  Plant response rating, Kochia: 85
Kochia (Kochia scoparia); [19]
  Kochia plant response rating: 95
Kochia (Kochia scoparia); [20]
  Plant response rating, Kochia: 98
Kochia (Kochia scoparia); [22]
  Kochia plant response rating: 100
[8]; [16]
  Plant response rating, Morningglory: 100
[8]; [17]
  Plant response rating, Morningglory: 15
[8]; [18]
  Plant response rating, Morningglory: 20
[8]; [23]
  Plant response rating, Morningglory: 55
[8]; [19]
  Morningglory plant response rating: 70
[8]; [20]
  Plant response rating, Morningglory: 100
[8]; [21]
  Plant response rating, Morningglory: 100
[8]; [22]
  Morningglory plant response rating: 100
[9]; [16]
  Plant response rating, Ragweed: 90
[9]; [17]
  Plant response rating, Ragweed: 80
[9]; [18]
  Plant response rating, Ragweed: 85
[9]; [23]
  Plant response rating, Ragweed: 98
[9]; [19]
  Ragweed plant response rating: 100
[9]; [20]
  Plant response rating, Ragweed: 65
[9]; [21]
  Plant response rating, Ragweed: 65
[9]; [22]
  Ragweed plant response rating: 90
Soybean (Glycine max); [16]
  Plant response rating, Soybean: 50
Soybean (Glycine max); [17]
  Plant response rating, Soybean: 65
Soybean (Glycine max); [18]
  Plant response rating, Soybean: 70
Soybean (Glycine max); [23]
  Plant response rating, Soybean: 80
Soybean (Glycine max); [19]
  Soybean plant response rating: 90
Soybean (Glycine max); [20]
  Plant response rating, Soybean: 0
Soybean (Glycine max); [21]
  Plant response rating, Soybean: 30
Soybean (Glycine max); [22]
  Soybean plant response rating: 35
[10]; [16]
  Plant response rating, Velvetleaf: 100
[10]; [17]
  Plant response rating, Velvetleaf: 95
[10]; [18]
  Plant response rating, Velvetleaf: 100
[10]; [23]
  Plant response rating, Velvetleaf: 100
[10]; [19]
  Velvetleaf plant response rating: 100
[10]; [20]
  Plant response rating, Velvetleaf: 50
[10]; [21]
  Plant response rating, Velvetleaf: 90
[10]; [22]
  Velvetleaf plant response rating: 90
[11]; [16]
  Plant response rating, Wheat: 0
[11]; [17]
  Plant response rating, Wheat: 0
[11]; [18]
  Plant response rating, Wheat: 0
[11]; [23]
  Plant response rating, Wheat: 10
[11]; [19]
  Wheat plant response rating: 30
[11]; [20]
  Plant response rating, Wheat: 0
[11]; [21]
  Plant response rating, Wheat: 0
[11]; [22]
  Wheat plant response rating: 0
Wild oat (Avena fatua); [16]
  Plant response rating, Oat, Wild: 0
Wild oat (Avena fatua); [17]
  Plant response rating, Oat, Wild: 0
Wild oat (Avena fatua); [18]
  Plant response rating, Oat, Wild: 0
Wild oat (Avena fatua); [23]
  Plant response rating, Oat, Wild: 5
Wild oat (Avena fatua); [19]
  Oat, Wild plant response rating: 50
Wild oat (Avena fatua); [20]
  Plant response rating, Oat, Wild: 0
Wild oat (Avena fatua); [21]
  Plant response rating, Oat, Wild: 0
Wild oat (Avena fatua); [22]
  Oat, Wild plant response rating: 0
[12]; [16]
  Plant response rating, Nutsedge, Yellow: 50
[12]; [17]
  Plant response rating, Nutsedge, Yellow: 15
[12]; [18]
  Plant response rating, Nutsedge, Yellow: 45
[12]; [23]
  Plant response rating, Nutsedge, Yellow: 65
[12]; [19]
  Nutsedge, Yellow plant response rating: 80
[12]; [20]
  Plant response rating, Nutsedge, Yellow: 5
[12]; [21]
  Plant response rating, Nutsedge, Yellow: 10
[12]; [22]
  Nutsedge, Yellow plant response rating: 40
[13]; [24]
  Plant response rating, Canarygrass: 0
[13]; [25]
  Plant response rating, Canarygrass: 0
[13]; [26]
  Plant response rating, Canarygrass: 0
[13]; 250 g ai/ha, scale 0 to 100
  Canarygrass plant response rating: 5
[14]; [24]
  Plant response rating, Chickweed: 90
[14]; [25]
  Plant response rating, Chickweed: 98
[14]; [26]
  Plant response rating, Chickweed: 98
[14]; 250 g ai/ha, scale 0 to 100
  Chickweed plant response rating: 100
[15]; [24]
  Plant response rating, Windgrass: 0
[15]; [25]
  Plant response rating, Windgrass: 0
[15]; [26]
  Plant response rating, Windgrass: 0
[15]; 250 g ai/ha, scale 0 to 100
  Windgrass plant response rating: 5
